These are literature values, as cited in patent US6514544B2, “Beverage for increasing the body's capacity to break down alcohol and method thereof” (JHS-Privatstiftung, priority 1998, dated 2003).

For `CCO` [alcohol, ethanol], where the note is “approximately”, the “share of the reabsorbed alcohol excreted via the kidneys” value is 1-2% and the “share of the reabsorbed alcohol excreted via the lungs” value was 2-3%. Also, the amount directly glucuronated (slight amounts) is 0.5%.
